Measurements published in patent US20040171566A1, “Antisense modulation of p38 mitogen activated protein kinase expression” (priority 1999, published 2004).
In the oligonucleotide strings, read from the 5' end, every base follows the letter of its sugar. An asterisk marks phosphorothioate; unmarked linkages are phosphodiester. Other units and linkages are bracketed, terminal groups are in braces. A string of capitals states the bases alone. e = 2'-O-(2-methoxyethyl) (MOE); [5mC] = 5-methylcytosine; d = 2'-deoxy (DNA)

Assays:
[1] = system: human p38α mRNA; test: Human p38α mRNA expression in T-24 cells; conditions: for % P38α mRNA EXPRESSION: initial screen of human p38α oligonucleotides
[2] = system: human p38β mRNA; test: Human p38β mRNA expression in T-24 cells; conditions: for % P38β mRNA EXPRESSION: initial screen of human p38α oligonucleotides
[3] = initial screen of human p38β oligonucleotides
[4] = dose 50 nM, relative to control oligonucleotide = 100%
[5] = dose 100 nM, relative to control oligonucleotide = 100%
[6] = dose 200 nM, relative to control oligonucleotide = 100%

| Sequence | % p38α mRNA EXPRESSION [1, 3] [%] | % p38β mRNA Expression [2, 3] [%] | % P38α mRNA EXPRESSION [1] [%] | % P38β mRNA EXPRESSION [2] [%] | other results |
| --- | --- | --- | --- | --- | --- |
| CACCGCCACCTTCTGGCGCA (antisense e[5mC]eAe[5mC]e[5mC]eG*d[5mC]*d[5mC]*dA*d[5mC]*d[5mC]*dT*dT*d[5mC]*dT*dG*eGe[5mC]eGe[5mC]eA) [ISIS 107870] | 97 | 74 | – | – | – |
| TCAAAGGACTGATCATAAGG (eT*e[5mC]*eA*eA*eA*dG*dG*dA*d[5mC]*dT*dG*dA*dT*d[5mC]*dA*eT*eA*eA*eG*eG; antisense) [ISIS 100874] | – | – | 42 | 76 | % p38α mRNA EXPRESSION ([1]; dose 50 nM): 47%; % p38α mRNA EXPRESSION ([1]; dose 100 nM): 27%; % p38α mRNA EXPRESSION ([1]; dose 200 nM): 13% |
| CAGGAATTGAACGTGCTCGT (antisense e[5mC]eAeGeGeA*dA*dT*dT*dG*dA*dA*d[5mC]*dG*dT*dG*e[5mC]eTe[5mC]eGeT) [ISIS 107873] | 120 | 58 | – | – | % p38β mRNA Expression [2, 4]: 69%; % p38β mRNA Expression [2, 5]: 41%; % p38β mRNA Expression [2, 6]: 23% |
| GTACGTTCTGCGCGCGTGGA (antisense eGeTeAe[5mC]eG*dT*dT*d[5mC]*dT*dG*d[5mC]*dG*d[5mC]*dG*d[5mC]*eGeTeGeGeA) [ISIS 107871] | 111 | 60 | – | – | % p38β mRNA Expression [2, 4]: 41%; % p38β mRNA Expression [2, 5]: 42%; % p38β mRNA Expression [2, 6]: 10% |
| AGTCAAAGACTGAATATAGT (eA*eG*eT*e[5mC]*eA*dA*dA*dG*dA*d[5mC]*dT*dG*dA*dA*dT*eA*eT*eA*eG*eT; antisense) [ISIS 100871] | – | – | 57 | 96 | – |
| CTGAGACATTTTCCAGCGGC (phosphorothioate gapmer, further chemistry not given here) [ISIS 100860] | – | – | 73 | 71 | – |
| ACGCTCGGGCACCTCCCAGA (phosphorothioate gapmer, further chemistry not given here) [ISIS 100861] | – | – | 60 | 47 | – |
| GGCACAAAGCTGATGACTTC (chimeric deoxy gapped, phosphorothioate, further chemistry not given here) [ISIS 100875] | – | – | 39 | 90 | % p38α mRNA EXPRESSION ([1]; dose 50 nM): 30%; % p38α mRNA EXPRESSION ([1]; dose 100 nM): 13%; % p38α mRNA EXPRESSION ([1]; dose 200 nM): 8% |
| TATGGTCTGTACCAGGAAAC (chimeric deoxy gapped, phosphorothioate, further chemistry not given here) [ISIS 100870] | – | – | 51 | – | – |
| GCAACAAGAGGCACTTGAAT (eG*e[5mC]*eA*eA*e[5mC]*dA*dA*dG*dA*dG*dG*d[5mC]*dA*d[5mC]*dT*eT*eG*eA*eA*eT; antisense) [ISIS 100877] | – | – | 47 | 95 | – |
| CATCATCAGGATCGTGGTAC (chimeric deoxy gapped, phosphorothioate, further chemistry not given here) [ISIS 100873] | – | – | 34 | 70 | % p38α mRNA EXPRESSION ([1]; dose 50 nM): 19%; % p38α mRNA EXPRESSION ([1]; dose 100 nM): 12%; % p38α mRNA EXPRESSION ([1]; dose 200 nM): 8% |
| AGGTGCTCAGGACTCCATCT (chimeric deoxy gapped, phosphorothioate, further chemistry not given here) [ISIS 100876] | – | – | 77 | 93 | – |
| ACAGACGGAGCCGTAGGCGC (antisense eAe[5mC]eAeGeA*d[5mC]*dG*dG*dA*dG*d[5mC]*d[5mC]*dG*dT*dA*eGeGe[5mC]eGe[5mC]) [ISIS 107869] | 93 | 60 | – | – | – |
| TTCTCTTATCTGAGTCCAAT (chimeric deoxy gapped, phosphorothioate, further chemistry not given here) [ISIS 100872] | – | – | 37 | 77 | % p38α mRNA EXPRESSION ([1]; dose 50 nM): 45%; % p38α mRNA EXPRESSION ([1]; dose 100 nM): 18%; % p38α mRNA EXPRESSION ([1]; dose 200 nM): 17% |
| CAGTTGAGCATGATCTCAGG (antisense e[5mC]eAeGeTeT*dG*dA*dG*d[5mC]*dA*dT*dG*dA*dT*d[5mC]*eTe[5mC]eAeGeG) [ISIS 107876] | 137 | 127 | – | – | – |
